A short description of the series: recombinant UMI read abundance after kanamycin selection (control-corrected) (log10(CPM+1)); higher = more efficient recombination; extreme values may be limits of the assay; sequences stand for … in AGTGCAGAGAAAATCGGCCAGTTTTCTCTGCCTGCAGTCCGCATGCCGTGGGACCCCTTGGGTTCTAACCTGTTGCCTAGATTTATGCAGCGGACTGCCTTTCTCCCAAAGTGATAAACCGG…AGGTTGGTTTCACT; site = the 11-nt donor. The gist of the method:
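Each donor and donor-binding-loop pair was tracked by a 12-nt UMI on a plasmid carrying a promoterless kanamycin gene. With a second plasmid supplying a fixed target and T7-inducible IS621 bridge recombinase, the pool was plated in Escherichia coli on IPTG (0.07 mM) plus kanamycin or unselected. Sequencing of recombinant UMIs across the donor–target junction gave counts expressed as log10(CPM+1) after replicate averaging and control-derived scaling.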
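Further: IS621 bridge recombinase in Escherichia coli cells against a fixed T5 target plasmid.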

On to “AGGAAGACATGGACCGGTTTTCCCGGTAATCCGTATTTGCA (site AGGTAGACTTT)”, for which the “recombinant UMI read abundance (log10)” value was found to be 0.0208.

Consider “AGGAAGACATGGACCGGTTTTCCCGGTAATCCGTATTTGCA (site AGGTAGCCTTG)”, for which the “recombinant UMI read abundance (log10)” value is 0.

As for “AGGAAGACATGGACCGGTTTTCCCGGTAATCCGTATTTGCA (site AGGTGGACTTG)”, the “recombinant UMI read abundance (log10)” value is 0.577.

As for “AGGAAGACATGGACCGGTTTTCCCGGTAATCCGTATTTGCA (site AGTAACACTTG)”, the “recombinant UMI read abundance (log10)” value was 0.00423.

With “AGGAAGACATGGACCGGTTTTCCCGGTAATCCGTATTTGCA (site AGTAAGACTGG)”, the “recombinant UMI read abundance (log10)” value amounted to 0.

For the sequence “AGGAAGACATGGACCGGTTTTCCCGGTAATCCGTATTTGCA (site AGTAAGACTTG)”, the “recombinant UMI read abundance (log10)” value turned out to be 1.25.

“AGGAAGACATGGACCGGTTTTCCCGGTAATCCGTATTTGCA (site AGTAAGACTTT)”: the “recombinant UMI read abundance (log10)” value was 0.006.

Take “AGGAAGACATGGACCGGTTTTCCCGGTAATCCGTATTTGCA (site AGTAAGCCTTG)”: the “recombinant UMI read abundance (log10)” value turned out to be 0.

“AGGAAGACATGGACCGGTTTTCCCGGTAATCCGTATTTGCA (site AGTAGGACTTG)”: the “recombinant UMI read abundance (log10)” value stood at 0.855.

As for “AGGAAGACATGGACCGGTTTTCCCGGTAATCCGTATTTGCA (site AGTTAGACTTG)”, the “recombinant UMI read abundance (log10)” value was 1.

On to “AGGAAGACATGGACCGGTTTTCCCGGTAATCCGTATTTGCA (site ATCAAGACTTG)”, for which the “recombinant UMI read abundance (log10)” value stood at 0.869.

“AGGAAGACATGGACCGGTTTTCCCGGTAATCCGTATTTGCA (site ATGAAGACTAG)”: the “recombinant UMI read abundance (log10)” value was 0.

On to “AGGAAGACATGGACCGGTTTTCCCGGTAATCCGTATTTGCA (site ATGAAGACTTC)”, for which the “recombinant UMI read abundance (log10)” value came out at 0.0122.

For “AGGAAGACATGGACCGGTTTTCCCGGTAATCCGTATTTGCA (site ATGAAGACTTG)”, the “recombinant UMI read abundance (log10)” value came to 1.43.

As to “AGGAAGACATGGACCGGTTTTCCCGGTAATCCGTATTTGCA (site ATGAAGGCTTG)”, the “recombinant UMI read abundance (log10)” value came out at 0.

“AGGAAGACATGGACCGGTTTTCCCGGTAATCCGTATTTGCA (site ATGAATACTTG)”: the “recombinant UMI read abundance (log10)” value came out at 0.

In the case of “AGGAAGACATGGACCGGTTTTCCCGGTAATCCGTATTTGCA (site ATGACGACTTG)”, the “recombinant UMI read abundance (log10)” value was determined as 0.

Take “AGGAAGACATGGACCGGTTTTCCCGGTAATCCGTATTTGCA (site ATGCAGACTTG)”: the “recombinant UMI read abundance (log10)” value was 0.701.

For the sequence “AGGAAGACATGGACCGGTTTTCCCGGTAATCCGTATTTGCA (site CAGAAGACTTG)”, the “recombinant UMI read abundance (log10)” value was determined as 1.43.

On to “AGGAAGACATGGACCGGTTTTCCCGGTAATCCGTATTTGCA (site CGGAACACTTG)”, for which the “recombinant UMI read abundance (log10)” value came out at 0.912.

On to “AGGAAGACATGGACCGGTTTTCCCGGTAATCCGTATTTGCA (site CGGAAGACTGG)”, for which the “recombinant UMI read abundance (log10)” value was 0.

As to “AGGAAGACATGGACCGGTTTTCCCGGTAATCCGTATTTGCA (site CGGAAGACTTG)”, the “recombinant UMI read abundance (log10)” value was 0.801.

As for “AGGAAGACATGGACCGGTTTTCCCGGTAATCCGTATTTGCA (site CGGAAGACTTT)”, the “recombinant UMI read abundance (log10)” value worked out at 0.95.

Consider “AGGAAGACATGGACCGGTTTTCCCGGTAATCCGTATTTGCA (site CGGAAGCCTTG)”, for which the “recombinant UMI read abundance (log10)” value is 0.

“AGGAAGACATGGACCGGTTTTCCCGGTAATCCGTATTTGCA (site CGGAGGACTTG)”: the “recombinant UMI read abundance (log10)” value turned out to be 0.505.

On to “AGGAAGACATGGACCGGTTTTCCCGGTAATCCGTATTTGCA (site CGGTAGACTTG)”, for which the “recombinant UMI read abundance (log10)” value was determined as 1.27.

With “AGGAAGACATGGACCGGTTTTCCCGGTAATCCGTATTTGCA (site CGTAAGACTTG)”, the “recombinant UMI read abundance (log10)” value came to 0.977.

For the sequence “AGGAAGACATGGACCGGTTTTCCCGGTAATCCGTATTTGCA (site GGCAAGACTTG)”, the “recombinant UMI read abundance (log10)” value was found to be 2.22.

As to “AGGAAGACATGGACCGGTTTTCCCGGTAATCCGTATTTGCA (site GGGAAGACTAG)”, the “recombinant UMI read abundance (log10)” value was found to be 0.

The record behind these values is the supplement of paper PMC11208160.
